Some test systems named below: CCRF-CEM leukemia; EKVX NSCLC; HT29 colon; M19-MEL melanoma; NCI-H226 lung; NCI-H460 lung; OVCAR-5 ovarian; SK-MEL-28 melanoma; SK-OV-3 ovarian; UO-31 renal; XF 498 CNS; SN12C renal; DU-145 prostate.
Test in all cases: NCI-60 cell line screen, 48 h

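Values below derive from 48-hour exposures of cells grown in 96-well plates, with endpoints linearly interpolated between the two concentrations bracketing the appropriate inhibition level. At the GI50, growth is halved. At the TGI there is no net growth.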

Regarding `COc1cc(C2c3cc4c(cc3[C@@H](Nc3cnc5ccccc5c3)C3COC(=O)[C@H]23)OCO4)cc(OC)c1O` (some centres not stated), the TGI in the test with CCRF-CEM leukemia came to 0.463 µM; in the test with EKVX NSCLC, 9.09 µM; in the test on HT29 colon it was 4.2 µM; with M19-MEL melanoma, 3.28 µM; in the test with NCI-H226 lung it was 1.23 µM; in the test with NCI-H460 lung, 0.397 µM. Also, the TGI in the test on OVCAR-5 ovarian was 2.25 µM; with SK-MEL-28 melanoma, 3.85 µM; in the test on SK-OV-3 ovarian it was 6.18 µM; in the test with UO-31 renal, 3.3 µM; in the test on XF 498 CNS, 4.66 µM.
With `O=C1Sc2sc(=S)sc2SC1c1ccccc1` (configuration not stated), the TGI in the test on CCRF-CEM leukemia is 91.5 µM; with EKVX NSCLC, above 100 µM; in the test with HT29 colon it was above 100 µM; in the test on M19-MEL melanoma, above 100 µM; in the test on NCI-H226 lung it was above 100 µM; with NCI-H460 lung, above 100 µM. The TGI is above 100 µM in the test with OVCAR-5 ovarian; above 64.8 µM with SK-MEL-28 melanoma; above 100 µM in the test with SK-OV-3 ovarian; above 100 µM in the test with SN12C renal; above 86.7 µM in the test with UO-31 renal; above 79.1 µM with XF 498 CNS.
Regarding `C=CCn1c(C)nc2cc(Nc3nc(N4CCCC4)nc4nc[nH]c34)ccc21`, the GI50 in the test with CCRF-CEM leukemia is 54.5 µM; in the test on DU-145 prostate, above 100 µM; in the test on NCI-H226 lung it was above 100 µM; in the test on OVCAR-5 ovarian, above 100 µM; with UO-31 renal, above 100 µM. The TGI in the test on CCRF-CEM leukemia, in the test with DU-145 prostate, with NCI-H226 lung, in the test on OVCAR-5 ovarian and in the test with UO-31 renal was above 100 µM throughout.
Consider `C=C1C(=O)OC2/C=C(CO)/C=C\C3OC3(C)CC(OC(=O)/C(C)=C/COC(C)=O)C12` (configuration not stated), for which the TGI with DU-145 prostate turned out to be 30.2 µM; in the test with EKVX NSCLC, 12.8 µM; with HT29 colon, 7.39 µM; with M19-MEL melanoma, 4.15 µM; with NCI-H226 lung, 27.7 µM; in the test with NCI-H460 lung it was 15.3 µM. Moreover, the TGI with OVCAR-5 ovarian was 26.9 µM; in the test with SK-MEL-28 melanoma, 3.26 µM; in the test with SK-OV-3 ovarian, 31.7 µM; with SN12C renal, 5.63 µM; with UO-31 renal, 17.9 µM; in the test on XF 498 CNS, 6.47 µM.
For the compound `Nc1nc2cc(COc3ccc(C(=O)O)cc3)ccc2nc1-c1ccccc1`, the TGI in the test with CCRF-CEM leukemia, with DU-145 prostate, in the test on EKVX NSCLC, in the test on HT29 colon, in the test with NCI-H226 lung and with NCI-H460 lung was above 10 µM throughout. For the same compound, the TGI with OVCAR-5 ovarian, in the test with SK-MEL-28 melanoma, with SK-OV-3 ovarian, with SN12C renal and in the test on UO-31 renal was above 10 µM in each case.
On to `Cc1c2cnccc2c(C)c2c1c1ccccc1n2CCCCCCCl`, for which the TGI is above 50 µM in the test on CCRF-CEM leukemia; above 50 µM in the test with EKVX NSCLC; above 50 µM with HT29 colon; above 50 µM in the test with M19-MEL melanoma; above 46.7 µM with NCI-H226 lung; above 50 µM with NCI-H460 lung. Also, the TGI in the test with OVCAR-5 ovarian, with SK-MEL-28 melanoma, in the test on SK-OV-3 ovarian, in the test with SN12C renal, in the test on UO-31 renal and in the test with XF 498 CNS was above 50 µM each time.
For `C=C1C(=O)OC2/C=C(\CO)C3OC3C3OC3(C)CC(OC(=O)/C(=C/C)COC(C)=O)C12` (configuration not stated), the TGI in the test on DU-145 prostate came to 32.3 µM; in the test with EKVX NSCLC, 9.58 µM; with HT29 colon, 15.3 µM; in the test with M19-MEL melanoma it was 3.94 µM; in the test on NCI-H226 lung, 40.8 µM; in the test on NCI-H460 lung it was 28.4 µM. Besides, the TGI is 28.7 µM in the test with OVCAR-5 ovarian; 3.72 µM in the test on SK-MEL-28 melanoma; 45.7 µM with SK-OV-3 ovarian; 10.9 µM in the test with SN12C renal; 23.7 µM in the test with UO-31 renal; 4.54 µM in the test on XF 498 CNS.
On to `O=C(N/N=C/c1cc(Cl)cc(Cl)c1[O-])c1ccccc1O.O=C(N/N=C/c1cc(Cl)cc(Cl)c1[O-])c1ccccc1O.[Mn+2]`, for which the GI50 with EKVX NSCLC is 0.861 µM. The TGI in the test on EKVX NSCLC was found to be 11.2 µM; with NCI-H226 lung, 6.59 µM; with OVCAR-5 ovarian, 17.4 µM; in the test on SK-MEL-28 melanoma, 12.1 µM; with SK-OV-3 ovarian, 3.58 µM; in the test with UO-31 renal it was 11.1 µM.
Turning to `CS(C)(=O)=Nn1c(=O)n2n(c1=O)[C@H]1CC[C@@H]2C1`, the TGI in the test with CCRF-CEM leukemia, in the test on DU-145 prostate, in the test on EKVX NSCLC, with HT29 colon, with NCI-H226 lung and in the test on NCI-H460 lung was above 100 µM each time. The TGI in the test on OVCAR-5 ovarian, in the test on SK-MEL-28 melanoma, in the test on SK-OV-3 ovarian and in the test on UO-31 renal was above 100 µM each time.
Take `CSc1nc2c(ncn2C2OC(CO)C(O)C(O)C2O)c(=O)n1C` (configuration not stated): the TGI in the test on CCRF-CEM leukemia, with EKVX NSCLC, in the test on HT29 colon, in the test with M19-MEL melanoma, in the test with NCI-H226 lung and with NCI-H460 lung was above 100 µM in each case. The TGI in the test with OVCAR-5 ovarian, in the test with SK-MEL-28 melanoma, with SK-OV-3 ovarian, in the test on SN12C renal, with UO-31 renal and in the test on XF 498 CNS was above 100 µM in each case.
On to `O=C(O)C(C1NCCS1)N1C(=O)c2ccccc2C1=O` (configuration not stated), for which the TGI with CCRF-CEM leukemia, in the test on DU-145 prostate, in the test on EKVX NSCLC, with HT29 colon, in the test on NCI-H226 lung and in the test with NCI-H460 lung was above 100 µM in each case. The TGI with OVCAR-5 ovarian, with SK-MEL-28 melanoma, in the test on SK-OV-3 ovarian, with SN12C renal and in the test on UO-31 renal was above 100 µM each time.
`COc1ccc2[nH]c(=O)cc(C)c2c1[N+](=O)[O-]`: the TGI in the test with CCRF-CEM leukemia, in the test on EKVX NSCLC, with HT29 colon, in the test with M19-MEL melanoma, in the test on NCI-H226 lung and in the test on NCI-H460 lung was above 100 µM in each case. Further, the TGI in the test on OVCAR-5 ovarian, in the test on SK-MEL-28 melanoma, in the test on SK-OV-3 ovarian, in the test with SN12C renal, with UO-31 renal and in the test on XF 498 CNS was above 100 µM throughout.
